Experimental data as given in patent US7485434B2, “Method for screening compounds for those that modulate transducers of regulated CREB activity” (The Salk Institute for Biological Studies, priority 2005, dated 2009).

Assays:
AMPK = settings: cited from earlier work
TORC2 [1] = assay: TORC2 phosphorylation in primary rat hepatocytes (Western blot); format: cell-based; settings: primary hepatocytes; AICAR 1 mM, in the presence of FSK, 30 minutes
Description: FIG. 18B illustrates the effect of CHX on levels of phospho (Ser171) TORC2 in primary rat hepatocytes treated with glucagon over a variety of time points, shown in hours. Western blot assay indicates the levels of TORC2, phospho (Ser171) TORC2 and CREB.
Specifically, FIG. 19A, top, presents a Western blot showing the effect of US and SIK1 RNAi adenoviruses on the levels of SIK1 protein in rat hepatocytes. FIG. 19A, bottom, presents a Western blot assay with nondiscriminating TORC2 antiserum, showing the effect of SIK1 RNAi adenovirus on TORC2 dephosphorylation (compare P-TORC2 and TORC2 bands) following exposure of primary rat hepatocytes to glucagon (Gluc). The arrow identifies phosphorylated TORC2.
Cells were exposed to AICAR and FSK for 30 minutes. Lower mobility bands (arrow) indicate phosphorylated TORC2 polypeptides.
Rat primary hepatocytes were prepared from 200-300g of Sprague-Dawley rats by collagenase perfusion method as described previously (see Koo et al., 2004). 1×10^6 cells were plated in 6 well plates with medium 199 (Invitrogen, Carlsbad, Calif.) supplemented by 10% FBS, 10 units/ml penicillin, 10 μg/ml streptomycin, and 10 nM dexamethasone for 3-6 hours. After attachment, cells were infected with adenoviruses for 16 hours. Subsequently, cells were maintained in medium 199 without FBS and dexamethasone for 24 hours (for cDNA expression adenoviruses) or 48 hours (for RNAi adenoviruses) and […] forskolin or 100 nM glucagon for 2 hours unless noted otherwise. For experiments with cycloheximide, 10 μg/ml cycloheximide was added 30 minutes prior to the addition of 100 nM glucagon.
Like other signaling pathways, cAMP stimulates gluconeogenic gene expression with burst-attenuation kinetics (see Sasaki et al., 1984). Following exposure of primary hepatocytes to Forskolin, PEPCK mRNA levels became maximal after 2 hours, returning to near baseline after 4 hours (see FIG. 18A). […] Consistent with this, CHX pre-treatment potentiated gluconeogenic gene expression in primary rat hepatocytes exposed to glucagon 2-3 fold (see FIG. 18C). […]

TORC2 [2] = assay: Cellular localization of TORC2 in primary rat hepatocytes; format: cell-based; settings: wild-type or Ser171Ala TORC2
Experimental: FIG. 20C illustrate the effect of AICAR and SIK1 on cellular localization of wild-type or Ser171 Ala TORC2 in primary rat hepatocytes. Cells were infected with adenoviruses for HA-tagged wild-type or mutant TORC2 and SIK1 as indicated. Infected cells were exposed to FSK and AICAR for 30 minutes. TORC2 localization was examined with anti-HA antiserum. Cells were counterstained with DAP1 to visualize nuclei.
Based on its ability to promote Ser171 phosphorylation, AMPK might be expected to inhibit nuclear entry of TORC2 in cells exposed to FSK. […] Confirming the pivotal role of Ser171 in this regard, mutant Ser171Ala TORC2 remained constitutively nuclear under both conditions.

[3] = tested on: gluconeogenic genes (PEPCK, PGC-1α, G6Pase); assay: Q-PCR of gluconeogenic gene expression in primary rat hepatocytes; format: cell-based; settings: primary hepatocytes
Experimental: Specifically, FIG. 17A illustrates the effect of TORC2 on induction of gluconeogenic genes (PEPCK, PGC-1α, G6Pase) by FSK (10 μM, 2 hr) in cultured primary rat hepatocytes infected with TORC2 or control GFP adenovinus as indicated.
FIGS. 18A-18H illustrate that the induction of the AMP kinase family member SIK1 by CREB during fasting attenuates the gluconeogenic program. Specifically, FIG. 18A illustrates the time course of PEPCK gene expression in primary rat hepatocytes following exposure to FSK. mRNA levels were determined by Q-PCR analysis.
FIG. 18C illustrates the effect of CHX pretreatment on induction of gluconeogenic genes (PEPCK, PGC-1α, G6Pase) by glucagon in primary rat hepatocytes. Relative mRNA levels are shown.
FIG. 19B summarizes the effect of SIK1 RNAi on gluconeogenic gene expression in primary rat hepatocytes, presenting Q-PCR analysis showing the relative induction of PEPCK, PGC-1α, and G6Pase mRNAs by glucagon in cells infected with control (US) or SIK1 RNAi expressing adenoviruses.
FIG. 20D summarizes the effect of AlCAR on expression of gluconeogenic genes (PEPCK, PGC-1α) in primary rat hepatocytes. Cells infected with mutant Ser171Ala TORC2 (171) adenovinus indicated. Treatment with AICAR and FSK is shown.
Rat primary hepatocytes were prepared from 200-300g of Sprague-Dawley rats by collagenase perfusion method as described previously (see Koo et al., 2004). […]

SMILES	effect on AMPK (AMPK)	phosphorylation of endogenous TORC2 (TORC2 [1])	effect on nuclear entry of TORC2 in cells exposed to FSK (TORC2 [2])	effect on induction of PEPCK and PGC-1α genes in response to FSK [3]
CN(C)C(=N)N=C(N)N [metformin]	activates AMPK	–	–	–
NC(=O)c1ncn([C@@H]2O[C@H](CO)[C@@H](O)[C@H]2O)c1N [AICAR, 5-aminoimidazole-4-carboxamide riboside]	–	triggered robust phosphorylation of endogenous TORC2	inhibited nuclear entry of wild-type, but not SerAla171 TORC2	blocked induction of PEPCK and PGC-1α genes
